Laboratory results as given in patent publication US20210052719A1, “A UNIVERSAL VACCINE AGAINST INFLUENZA” (Development Center for Biotechnology, priority 2017, published 2021).
No end group written: not given here.

Columns and labels:
[1] = antibody generation by immunizing mice with peptide, serum IgG by ELISA; format: in vivo, BALB/c and C57BL/6 mice; conditions: for induction of antibody (specific anti-JJ IgG): 5 μg, 15 μg, or 45 μg dose, ELISA with JJ peptide coated, FIG. 2A, 2B
Description: In this example, the peptide antigens in accordance with embodiments of the invention were used to induce antibody formation in mice. BALB/c and C57BL/6 mice (6-8 weeks old) were obtained from BioLASCO Taiwan (Taipei, Taiwan) or National Laboratory Animal Center (Taipei, Taiwan).
[…] Each group of mice was injected with a different peptide (Exp0-Exp5) solution as an antigen. For the first immunization, each mouse was given a subcutaneous injection with 100 μL (containing […] each) of the above prepared antigen solution.
The second injection was given 10-14 days after the first injection. The solution for the second injection was prepared by mixing each peptide (6 different peptides, Exp0-Exp5, each at 1:1 mix) in Freund's incomplete adjuvant. The injections were repeated for subsequent immunizations every 10-14 days after the previous injections until antibodies could be detected in sera, which took from 3-6 injections.
Mouse sera were collected at the following time points: preimmunization and at the middle time point between two adjacent injections. Once the antibodies became detectable in sera, the serum collections were performed every two weeks until antibodies could no longer be detected, which typically took about half a year. The serum collections were performed from the cheeks of the mice. Each time, 100 uL or less of blood was collected and the collection frequency was about once every two weeks. At the end of the experiments, mice were euthanized with carbon dioxide.
Antibody titers were determined using ELISA. First, a capture antibody (e.g., JJ peptide or various subtypes of hemagglutinins or fragments thereof) was coated on a 96-well microplate (100 μL per well of the diluted capture antibody). The plate was sealed and incubated at 4° C. overnight. Then, 100 μL of sample (e.g., antiserum) or standards in sample dilution buffer were added per well. […]
(§1) After the reaction, 50 μL of stop solution (acid solution) was added to each well. Then, the optical density of each well was measured immediately, using a microplate reader set to 450 nm.

JJ peptide = experiment: ELISA cross-reaction of induced IgGs with JJ peptide coated on plate; format: binding; conditions: IgGs induced by the peptide, FIG. 2A, 2B
Description: (§2) Antibody titers were determined using ELISA. First, a capture antibody (e.g., JJ peptide or various subtypes of hemagglutinins or fragments thereof) was coated on a 96-well microplate (100 μL per well of the diluted capture antibody). The plate was sealed and incubated at 4° C. overnight. Then, 100 μL of sample (e.g., antiserum) or standards in sample dilution buffer were added per well. The plate was sealed and incubated at room temperature for 1 hr.
(§3) After incubation, 100 μL of a detection antibody (e.g., a horseradish peroxidase (HRP) coupled antibody), diluted in antibody dilution buffer, was added to each well. The plate was sealed and incubated at room temperature for 1 hr. Then, 200 μL of substrate solution (3,3′,5,5′-tetramethylbenzidine (TMB)) was added to each well. The reaction mixtures were incubated for 20 minutes at room temperature, without exposing the plate to direct light.
as §1

[2] = tested on: H1 subtype of hemagglutinin; experiment: ELISA antibody titers against hemagglutinin subtypes; format: binding, influenza virus; conditions: FIG. 3
Description: as §2, §3, §1

[3] = tested on: H3 subtype of hemagglutinin; experiment: as above; format: binding, influenza virus; conditions: FIG. 3
Description: as §2, §3, §1

[4] = tested on: H5 subtype of hemagglutinin; format: binding, influenza virus
[5] = tested on: H7 subtype of hemagglutinin; format: binding, influenza virus
[6] = tested on: influenza viruses of the H1 subtype; set-up: species or system influenza virus
[7] = tested on: influenza viruses of the H3 subtype; set-up: species or system influenza virus
[8] = tested on: influenza viruses of the H5 subtype; set-up: species or system influenza virus
protease = conditions: phenylalanine residues of JJ substituted

GLLGAIAGPIEF [JJ-1]
induction of antibody (specific anti-JJ IgG) [1]: efficiently induce IgG production | binding of induced IgGs to JJ peptide (cross-reaction) (JJ peptide): bind the JJ peptide | reaction of antibodies generated with the peptide with hemagglutinin [2]: reacted | reaction of antibodies generated with the peptide with hemagglutinin [3]: reacted | reaction of antibodies generated with the peptide with hemagglutinin [4]: reacted | reaction of antibodies generated with the peptide with hemagglutinin [5]: reacted | inhibition of hemagglutination by induced antibodies [6]: able to inhibit hemagglutination | inhibition of hemagglutination by induced antibodies [7]: able to inhibit hemagglutination | inhibition of hemagglutination by induced antibodies [8]: able to inhibit hemagglutination | protease resistance (protease): protease-resistant

GLFGAIAGFIE [JJ]
induction of antibody (specific anti-JJ IgG) [1]: induced antibody (IgG) production | binding of induced IgGs to JJ peptide (cross-reaction) (JJ peptide): bind the JJ peptide | reaction of antibodies generated with the peptide with hemagglutinin [2]: reacted | reaction of antibodies generated with the peptide with hemagglutinin [3]: reacted | reaction of antibodies generated with the peptide with hemagglutinin [4]: reacted | reaction of antibodies generated with the peptide with hemagglutinin [5]: reacted | inhibition of hemagglutination by induced antibodies [6]: able to inhibit hemagglutination | inhibition of hemagglutination by induced antibodies [7]: able to inhibit hemagglutination | inhibition of hemagglutination by induced antibodies [8]: able to inhibit hemagglutination

GLMGAIAGPIEF [JJ-2]
protease resistance (protease): protease-resistant

GLHGAIAGLIENGW [JJ-4]
protease resistance (protease): protease-resistant

GLLGAIAGPIEGGW [JJ-3]
induction of antibody (specific anti-JJ3 IgG) ([1]; higher doses (15 μg and 45 μg), ELISA with peptide JJ-3 coated, FIG. 2C): induced the production of specific anti-JJ3 antibodies | protease resistance (protease): protease-resistant
